Experimental data published in patent US20040034106A1, “Treatment of anxiety disorders” (priority 2003, published 2004).
Where a name gives a salt, the structure may show the parent alone.

Tested on: chronic fingernail biting
Test: Treatment of a subject with chronic fingernail biting (Example 1)
Type: in vivo, human
Protocol: A subject presented with chronic fingernail biting. The subject was treated with 60 mg of tomoxetine hydrochloride, twice daily for 13 consecutive days. […] The patient's chronic fingernail biting behavior resumed upon termination of treatment with tomoxetine hydrochloride.

CNCC[C@@H](Oc1ccccc1C)c1ccccc1 [tomoxetine hydrochloride, (R)-(−)-N-methyl-3-(2-methylphenoxy)-3-phenylpropylamine]
chronic fingernail biting at final assessment (60 mg twice daily for 13 consecutive days, healthy appearing fingernails except for one finger): significant improvement
chronic fingernail biting behavior upon termination of treatment (after 60 mg twice daily for 13 consecutive days was stopped): resumed
